Entries after “also recorded” stand apart in the source; their conditions may differ.
Columns and labels:
[1] = test system: O-GlcNAcylated c-myc in MCF-7 cells; assay: Western blot of O-GlcNAcylated c-myc levels in MCF-7 cells; assay type: cell-based; details: for O-GlcNAcylated c-myc level: MCF-7, 4 hr
Protocol: MCF-7 breast cancer cells were treated for 24 hr with 1% DMSO, with an O-GlcNAcase inhibitor, streptozotocin (STZ), with N6-methyladenosine 5′-monophosphate (an O-GlcNAcase inhibitor discovered through by screening with the pseudofluorescent substrate 4-methylumbelliferol (4-MU)-GlcNAc (7)) or with media (control) (FIG. 5).
(§1) O-GlcNAcase inhibitors, which increased O-GlcNAcylation levels of proteins by preventing cleavage of an O-GlcNAc moiety of Ser or Thr residues, were identified using the antibodies of the present invention. MCF-7 breast cancer cells (FIG. 6. Panel A, Lanes 1-4) and MCF10A normal breast cells (FIG. 6. Panel A, Lanes 5-8) were treated for 4 hr with 1% DMSO (FIG. 6, Panel A, Lanes 1 and 5), the O-GlcNAcase inhibitors acetazolamide (FIG. 6, Panel A, Lanes 2 and 6) and N6-methyladenosine 5′-monophosphate (FIG. 6, Panel A, Lanes […] and 7) or media (control) (FIG. 6, Panel A, Lanes 4 and 8). Western blot analysis (8-16% gel) was carried out with cell lysates (20 μg/lane) using antibodies for O-GlcNAcylated c-myc (Peptide #1-G, 5,000-fold diluted).
(§2) Western blot analysis was carried out with 10% gel electrophoresis using nuclear lysates obtained from MCF-7 cells with antibodies for O-GlcNAcylated c-myc (Peptide #2-0). […] There was no increase in unmodified c-myc protein after ketoconazole treatment as verified with antibodies for unmodified c-myc (Peptide #2-N) by Western blot analysis.
MCF-7 cells were treated for 4 hr with 1% DMSO (negative control) or 2 mM ketoconazole in DMSO and an O-GlcNAcylated c-myc band was detected using a second antibody for O-GlcNAcylated c-myc (Peptide #1-G).

[2] = test system: O-GlcNAcylated p53 in MCF-7 cells; assay: Western blot of O-GlcNAcylated p53 levels in MCF-7 cells; assay type: cell-based; details: MCF-7, 24 hr, 2 mM, cytosol-containing supernatants, FIG. 7B
Protocol: MCF-7 cells were grown for 24 hr with treatment of 1% DMSO (negative control) or 2 mM STZ or acetazolamide dissolved in DMSO or 2 mM N6-methyladenosine 5′-monophosphate dissolved in media. The cells were harvested and cytosol-containing supernatants were obtained.

[3] = test system: O-GlcNAcylated c-myc in MCF10A cells; assay: Western blot of O-GlcNAcylated c-myc levels in MCF10A cells; assay type: cell-based; details: 4 hr treatment, cell lysates, FIG. 6A
Protocol: as §1

[4] = test system: Mia Paca-2 pancreatic cancer cells; assay: Cell proliferation assay (MTT); assay type: cell-based; details: Homo sapiens, Mia Paca-2, 50 μM for 72 hr
Protocol: (§3) Cell proliferation assays were carried out after seeding 3,000-5,000 cells in a 96-well plate with and without treatment of 50 μM ketoconazole dissolved in DMSO (final concentration, 1%) for 72 hr (FIG. 8, Panel A). The cell number was counted after staining the cells with 3-(4,5-dimethylthiazol-2-yl)2,5-diphenyl-tetrazolium bromide (MTT).

[5] = test system: A549 lung cancer cells; assay: Cell proliferation assay (MTT); assay type: cell-based; details: Homo sapiens, A549, 50 μM for 72 hr
Protocol: as §3

[6] = test system: PANC1 cells; assay: Cell proliferation assay (MTT); assay type: cell-based; details: PANC1, same treatments, 72 hr
Protocol: as §3

[7] = test system: H1437 lung cancer cells; assay: Cell proliferation assay (MTT); assay type: cell-based; details: Homo sapiens, NCI-H1437, H1437, 50 μM for 72 hr
Protocol: as §3

[8] = test system: HT29 colon cancer cells; assay: QCM ECMatrix cell invasion assay; assay type: cell-based, human; details: HT29, 100 μM, 72 hr
Protocol: (§4) Cell invasiveness of SW480 and HT29 human colon adenocarcinoma cells and MCF10CA1A breast cancer cells with and without 72 hr treatment with 100 μM ketoconazole was studied in 24-well plates using the QCM ECMatrix cell invasion assay kit (EMD Millipore).

[9] = test system: SW480 colon cancer cells; assay: QCM ECMatrix cell invasion assay; assay type: cell-based, human; details: SW480, 100 μM, 72 hr
Protocol: as §4

[10] = test system: MCF10CA1A breast cancer cells; assay: QCM ECMatrix cell invasion assay; assay type: cell-based; details: 100 μM, 72 hr
Protocol: as §4

[11] = test system: HT29 colon cancer cells; assay: Cell proliferation assay (MTT); assay type: cell-based, human
From the text: (§5) […] The cell number was counted after staining the cells with 3-(4,5-dimethylthiazol-2-yl)2,5-diphenyl-tetrazolium bromide (MTT).

[12] = test system: SW480 colon cancer cells; assay: Cell proliferation assay (MTT); assay type: cell-based, human
From the text: as §5

[13] = test system: MCF-7 breast cancer cells; assay: Cell proliferation; assay type: cell-based
Protocol: as §3

[14] = test system: HT29 colon cancer cells; assay: Wound healing assay (cell migration); assay type: cell-based, human; details: HT29, 100 μM
Protocol: (§6) Wound healing assays were also carried out to verify inhibition of cell migration after ketoconazole treatment.

[15] = test system: SW480 colon cancer cells; assay: Wound healing assay (cell migration); assay type: cell-based, human; details: SW480, 100 μM
Protocol: as §6

[16] = test system: unmodified c-myc in MCF-7 cells; assay: Western blot of unmodified c-myc in MCF-7 cells; assay type: cell-based; details: MCF-7, 4 hr, 2 mM, antibody Peptide #2-N
Protocol: as §2

[17] = test system: MCF-7 and MCF10A cells; assay: Lactate dehydrogenase (LDH) cytotoxicity assay; assay type: cell-based; details: 2 mM, 4 hr, LDH release
Protocol: Increased O-GlcNAcylated c-myc levels in MCF-7 cells induced cell death. MCF-7 tumor cell death after 2 mM ketoconazole treatment was compared with MCF10A normal cell death by LDH cytotoxicity assay. After treatment of cells for 4 hr, extracellular media and Triton X-100 solubilized cells were obtained and oxidation of NADH to NAD+ in both fractions was monitored for 2 min at a 340 nm to obtain total (media+cells) LDH release.

[18] = test system: Thr-58-O-GlcNAcylated c-myc in PANC-1 cells; assay: Thr-58-O-GlcNAcylated c-myc expression in PANC-1 cells; assay type: cell-based; details: PANC-1, after ketoconazole treatment
[19] = test system: Mia Paca-2 pancreatic cancer cells; assay: Wound healing assay (cell migration); assay type: cell-based; details: Mia Paca-2, 100 μM
Protocol: as §6

[20] = test system: PANC1 pancreatic cancer cells; assay: Wound healing assay (cell migration); assay type: cell-based; details: PANC1, 100 μM
Protocol: as §6

[21] = MCF-7, 24 hr treatment, 2 mM, nuclear lysates, FIG. 5
[22] = MCF-7, 4 hr treatment, cell lysates, FIG. 6A
[23] = 2 mM, nuclear lysates, antibody Peptide #2-G, FIG. 6B

CN(N=O)C(=O)N[C@H]1C(O)O[C@H](CO)[C@@H](O)[C@@H]1O (mixture of isomers) [STZ, streptozotocin]
O-GlcNAcylated c-myc levels [1, 21]: failed to increase

CNc1ncnc2c1ncn2[C@@H]1O[C@H](COP(=O)(O)O)[C@@H](O)[C@H]1O [N6-methyladenosine 5′-monophosphate]
Levels of O-GlcNAcylated p53 [2]: increased | O-GlcNAcylated c-myc levels [1, 22]: failed to increase | O-GlcNAcylated c-myc levels [1, 21]: failed to increase | O-GlcNAcylated c-myc levels [3]: failed to increase

CC(=O)Nc1nnc(S(N)(=O)=O)s1 [acetazolamide]
Levels of O-GlcNAcylated p53 [2]: increased | O-GlcNAcylated c-myc levels [1, 22]: failed to increase | O-GlcNAcylated c-myc levels in nucleus ([1]; MCF-7, 24 hr, 2 mM, data not shown): did not increase | O-GlcNAcylated c-myc levels [3]: failed to increase

O=C1CC2(CCCC2)CC(=O)N1CCCCN1CCN(c2ncccn2)CC1 [buspirone]
O-GlcNAcylated c-myc level [1, 23]: did not increase

CC(=O)N1CCN(c2ccc(OCC3COC(Cn4ccnc4)(c4ccc(Cl)cc4Cl)O3)cc2)CC1 (stereo not shown) [ketoconazole]
inhibition at 50 µM [4]: 60.2% | inhibition at 50 µM [5]: 51.3% | inhibition of cell proliferation [6]: failed to inhibit; also recorded: no significant differences | inhibition at 50 µM [7]: 44.9% | O-GlcNAcylated c-myc level [1, 23]: dramatically increased | O-GlcNAcylated c-myc level ([1]; 2 mM, second antibody Peptide #1-G, FIG. 6C): dramatically increased | cell invasiveness [8]: loss of cell invasiveness | inhibition at 100 µM ([8]; Homo sapiens, HT-29, read-out: inhibition of migration in cell invasion assay): 100% | inhibition at 100 µM ([9]; Homo sapiens, read-out: inhibition of migration in cell invasion assay): 100% | cell invasiveness [9]: loss of cell invasiveness | cell invasiveness [10]: partially inhibited | cell invasiveness ([10]; listed as Ketoconazole): slight loss of cell invasiveness | cell proliferation ([11]; HT29, 100 μM): inhibited | inhibition at 50 µM ([11]; Homo sapiens, HT-29, HT29, 50 μM for 72 hr, MTT): 67.4% | inhibition at 50 µM ([12]; Homo sapiens, SW480, 50 μM for 72 hr, MTT): 63.3% | cell proliferation ([12]; SW480, 100 μM): inhibited | proliferation of MCF-7 breast cancer cells [13]: inhibited | Percent of cells migrated toward a scratched field ([14]; 0 hr): 0% | Percent of cells migrated toward a scratched field ([14]; 24 hr): 8% | Percent of cells migrated toward a scratched field ([15]; 0 hr): 0% | Percent of cells migrated toward a scratched field ([15]; 24 hr): 27% | unmodified c-myc protein [16]: no increase | increased cell death in MCF-7 cells higher than in MCF10A cells [17]: 84% | Thr-58-O-GlcNAcylated c-myc expression [18]: failed to increase | inhibition at 100 µM ([19]; Homo sapiens, 24 and 48 hr, (36/46 × 100) and (43/55 × 100)): 78% | % cells migrated toward a scratched field ([19]; 0 hr): 0% | % cells migrated toward a scratched field ([19]; 24 hr): 11.6% | % cells migrated toward a scratched field ([19]; 24 hr, listed as Ketoconazole): 10% | % cells migrated toward a scratched field ([19]; 48 hr): 12% | inhibition of cell migration [20]: no significant differences | % cells migrated toward a scratched field ([20]; 0 hr): 0% | % cells migrated toward a scratched field ([20]; 24 hr): 6% | % cells migrated toward a scratched field ([20]; 48 hr): 11%

— patent publication US10317409B2, “Glycosylation site-specific antibodies and anti-cancer compounds” (Detroit R&D, Inc., priority 2013, dated 2019)
